Measurements from PubChem BioAssay AID1963985 (Molecular Pharmacology Branch, DTP, NCI, 2024).

System: 252836-082-R-J2-PDC tumor spheroids, viability
Assay: Anticancer human tumor 252836-082-R-J2-PDC patient-derived head and neck squamous cell carcinoma cell line growth inhibition [PI3K]
Conditions: spheroids with HUVEC and MSC; for IC50: curve of first compound; for viability, T/C: stronger effect = lower value
In short: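 Agents were dosed from a top concentration near clinical Cmax (otherwise 10 microM) in half-log decrements, alone or combined with PI3K inhibitors. The spheroids contain tumor cells plus endothelial (HUVEC) and MSC stroma; viability is measured.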
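Note: spheroids exposed to agents for seven days before readout.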
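Throughout, for viability, T/C: percent of vehicle DMSO control viability so 100% = untreated growth.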

With C[C@@H](NC(=O)c1ncnc(N)c1Cl)c1ncc(C(=O)Nc2cc(C(F)(F)F)c(Cl)cn2)s1 + CC(Nc1ncnc2nc[nH]c12)c1cc2cccc(Cl)c2c(=O)n1-c1ccccc1 the IC50 (second compound 0.0316 µM) was greater than 10000 nM, the IC50 (second compound 0.1 µM) was greater than 10000 nM and the IC50 (second compound 0.316 µM) was greater than 10000 nM. The IC50 (second compound 1 µM) was greater than 10000 nM, the IC50 (second compound 3.16 µM) was greater than 10000 nM and the IC50 (second compound 10 µM) was greater than 10000 nM. The viability, T/C (second compound 0.0316 µM, first compound 0.0316 µM) was 109%, the viability, T/C (second compound 0.0316 µM, first compound 0.1 µM) was 97.1% and the viability, T/C (second compound 0.0316 µM, first compound 0.316 µM) was 100%. The viability, T/C (second compound 0.0316 µM, first compound 1 µM) was 105%, the viability, T/C (second compound 0.0316 µM, first compound 3.16 µM) was 103% and the viability, T/C (second compound 0.0316 µM, first compound 10 µM) was 74%. For the same compound, the viability, T/C (second compound 0.1 µM, first compound 0.0316 µM) was 96.3%, the viability, T/C (second compound 0.1 µM, first compound 0.1 µM) was 94.7% and the viability, T/C (second compound 0.1 µM, first compound 0.316 µM) was 86.7%. It also gave a viability, T/C (second compound 0.1 µM, first compound 1 µM) of 92.1%, a viability, T/C (second compound 0.1 µM, first compound 3.16 µM) of 94.5% and a viability, T/C (second compound 0.1 µM, first compound 10 µM) of 82.3%. For the same compound, the viability, T/C (second compound 0.316 µM, first compound 0.0316 µM) was 90.1%, the viability, T/C (second compound 0.316 µM, first compound 0.1 µM) was 89.7% and the viability, T/C (second compound 0.316 µM, first compound 0.316 µM) was 98.5%. It also gave a viability, T/C (second compound 0.316 µM, first compound 1 µM) of 99.4%, a viability, T/C (second compound 0.316 µM, first compound 3.16 µM) of 94.3% and a viability, T/C (second compound 0.316 µM, first compound 10 µM) of 86.5%. It also gave a viability, T/C (second compound 1 µM, first compound 0.0316 µM) of 96.8%, a viability, T/C (second compound 1 µM, first compound 0.1 µM) of 89.9% and a viability, T/C (second compound 1 µM, first compound 0.316 µM) of 90.7%. For the same compound, the viability, T/C (second compound 1 µM, first compound 1 µM) was 92.7%, the viability, T/C (second compound 1 µM, first compound 3.16 µM) was 97.8% and the viability, T/C (second compound 1 µM, first compound 10 µM) was 88.6%. The viability, T/C (second compound 3.16 µM, first compound 0.0316 µM) was 73.5%, the viability, T/C (second compound 3.16 µM, first compound 0.1 µM) was 84.5% and the viability, T/C (second compound 3.16 µM, first compound 0.316 µM) was 89.5%. It also gave a viability, T/C (second compound 3.16 µM, first compound 1 µM) of 93.1%, a viability, T/C (second compound 3.16 µM, first compound 3.16 µM) of 72.7% and a viability, T/C (second compound 3.16 µM, first compound 10 µM) of 70.1%. It also gave a viability, T/C (second compound 10 µM, first compound 0.0316 µM) of 70.8%, a viability, T/C (second compound 10 µM, first compound 0.1 µM) of 69% and a viability, T/C (second compound 10 µM, first compound 0.316 µM) of 55.5%. The viability, T/C (second compound 10 µM, first compound 1 µM) was 64.5%, the viability, T/C (second compound 10 µM, first compound 3.16 µM) was 72.1% and the viability, T/C (second compound 10 µM, first compound 10 µM) was 65.4%.
In the case of Cn1cnc2c(F)c(Nc3ccc(Br)cc3Cl)c(C(=O)NOCCO)cc21 + CC(Nc1ccc2c(c1)OCCn1cc(N3C(=O)OCC3C(F)F)nc1-2)C(N)=O, the IC50 (second compound 0.00316 µM) is reported as greater than 3000 nM, the IC50 (second compound 0.01 µM) is reported as 2420 nM and the IC50 (second compound 0.0316 µM) is reported as 1500 nM. It also gave an IC50 (second compound 0.1 µM) of 558 nM, an IC50 (second compound 0.316 µM) of less than 9.49 nM and an IC50 (second compound 1 µM) of less than 9.49 nM. It also gave a viability, T/C (second compound 0.00316 µM, first compound 0.00949 µM) of 81.4%, a viability, T/C (second compound 0.00316 µM, first compound 0.03 µM) of 73.8% and a viability, T/C (second compound 0.00316 µM, first compound 0.0949 µM) of 86.3%. For the same compound, the viability, T/C (second compound 0.00316 µM, first compound 0.3 µM) was 79.6%, the viability, T/C (second compound 0.00316 µM, first compound 0.949 µM) was 72.4% and the viability, T/C (second compound 0.00316 µM, first compound 3 µM) was 52.1%. For the same compound, the viability, T/C (second compound 0.01 µM, first compound 0.00949 µM) was 81.7%, the viability, T/C (second compound 0.01 µM, first compound 0.03 µM) was 71.2% and the viability, T/C (second compound 0.01 µM, first compound 0.0949 µM) was 78.5%. It also gave a viability, T/C (second compound 0.01 µM, first compound 0.3 µM) of 76.9%, a viability, T/C (second compound 0.01 µM, first compound 0.949 µM) of 73.8% and a viability, T/C (second compound 0.01 µM, first compound 3 µM) of 44.5%. The viability, T/C (second compound 0.0316 µM, first compound 0.00949 µM) was 66.1%, the viability, T/C (second compound 0.0316 µM, first compound 0.03 µM) was 60.7% and the viability, T/C (second compound 0.0316 µM, first compound 0.0949 µM) was 77.9%. The viability, T/C (second compound 0.0316 µM, first compound 0.3 µM) was 65.2%, the viability, T/C (second compound 0.0316 µM, first compound 0.949 µM) was 55.1% and the viability, T/C (second compound 0.0316 µM, first compound 3 µM) was 42.4%. The viability, T/C (second compound 0.1 µM, first compound 0.00949 µM) was 58.9%, the viability, T/C (second compound 0.1 µM, first compound 0.03 µM) was 54.7% and the viability, T/C (second compound 0.1 µM, first compound 0.0949 µM) was 58.4%. For the same compound, the viability, T/C (second compound 0.1 µM, first compound 0.3 µM) was 51.7%, the viability, T/C (second compound 0.1 µM, first compound 0.949 µM) was 47.8% and the viability, T/C (second compound 0.1 µM, first compound 3 µM) was 31.4%. The viability, T/C (second compound 0.316 µM, first compound 0.00949 µM) was 49.9%, the viability, T/C (second compound 0.316 µM, first compound 0.03 µM) was 47.6% and the viability, T/C (second compound 0.316 µM, first compound 0.0949 µM) was 47.5%. It also gave a viability, T/C (second compound 0.316 µM, first compound 0.3 µM) of 46.3%, a viability, T/C (second compound 0.316 µM, first compound 0.949 µM) of 30.8% and a viability, T/C (second compound 0.316 µM, first compound 3 µM) of 18.2%. For the same compound, the viability, T/C (second compound 1 µM, first compound 0.00949 µM) was 42.5%, the viability, T/C (second compound 1 µM, first compound 0.03 µM) was 40% and the viability, T/C (second compound 1 µM, first compound 0.0949 µM) was 37%. It also gave a viability, T/C (second compound 1 µM, first compound 0.3 µM) of 38%, a viability, T/C (second compound 1 µM, first compound 0.949 µM) of 29.1% and a viability, T/C (second compound 1 µM, first compound 3 µM) of 13.3%.
